The test system of one experiment is Strains in all clusters. The class given is cell-based.
The test system of a further experiment is Cluster 3 strain 14B. The class given is cell-based, Virgibacillus halodenitrificans.
Experiment [1] deals with Cluster 2 strains 28A, 6A. It is filed as cell-based, Bacillus sp. Conditions: highest level of tellurite tolerated by strains when grown on LB-Marine plates.
Experiment [2] concerns Cluster 1 strains 1A, 13B, 30B. It is filed as cell-based, Rhodotorula mucilaginosa. Conditions: highest level of tellurite tolerated by strains when grown on LB-Marine plates.

As for arsenate, the “Resistance of strains to oxyanion” value in the experiment on Strains in all clusters is reported as “resistant”.

Consider `O=[Se](=O)(O)O` [selenate], for which the “Resistance of strains to oxyanion” value with Strains in all clusters is “resistant”.

`O=[Te](=O)(O)O` [tellurate]: in the experiment on Strains in all clusters, the “Resistance of strains to oxyanion” value was “resistant”.

Consider sodium tellurite [TeO3^2−], for which the “Growth of strain 14B in the presence of tellurite” value in the experiment with Cluster 3 strain 14B (150 μg Na2TeO3 ml^−1, on plates and in liquid cultures) is listed as “grows poorly”. For the same molecule, the “Maximum [TeO3^2−]” value is 75 to 150 µg/mL in the experiment on Cluster 3 strain 14B (highest level of tellurite tolerated by strains when grown on LB-Marine plates, cluster 3); 300 µg/mL in experiment [1]; 600 µg/mL in experiment [2].

The values above are taken from patent publication US20090246519A1 (priority 2008, published 2009).
